Measured values as given in paper PMC11101637, “Bioinformatics leading to conveniently accessible, helix enforcing, bicyclic ASX motif mimics (BAMMs)” (Nature Communications, 2024).
Numbered stars: 1 amine (or outer) side, 2 acyl side, 3 side chain; on linkers, the order of the positions; unused ones are H or OH. Bridge positions count the residues as written; N and C are the ends. Ends that are not written are not given here. Peptide text beside a SMILES is read from it. mXylylene = c1cc(C[*:1])cc(C[*:2])c1

Legend:
[1] = circular dichroism; details: PBS; pH 7.4; 25 °C; 5-30 uM
[2] = CD spectroscopy: percent helicity and ellipticity ratio 222/208 nm; type: physicochemical; details: for % helicity: 5-30 μM peptide, three scans averaged, [θ]222/[θ]max
Method: Circular dichroism (CD) experiments
Concentrations of the stock solution were determined by […] absorption of Trp or 275 nm absorption of Tyr (and TMB, if present in peptides). Each sample was dissolved in 1x PBS (pH 7.4), 10% TFE/PBS or 20% TFE/PBS with the final concentration between 5 to 30 μM. CD spectra were acquired using circular dichroism spectrometer (Chirascan) equipped with a temperature controller using 1 mm cell at a scan speed of 0.5 nm/sec at indicated temperature. Each sample was scanned three times and the averaged spectrum was smoothed.
Calculation of percent helicity
For simplicity, ‘helicity’ or ‘helical’ in the following text all refers to α-type. For each peptide, mean residue ellipticities ([θ]/(c*n), c = concentration of the peptide, n = number of amino acids in the peptide) were used to calculate % helicity, which is an empirical indicator of peptide helicity. […] (n = number of amino acids in the peptide, T = 25.0 °C).

[3] = Amide H-D exchange study (NMR), protection factors; type: physicochemical; details: for H/D exchange experiment, per-residue value (Fig 5i): amide H-D exchange by NMR
Method: Lyophilized samples of peptides LDLL 12-mer and bicyclo 12-mer from the above experiments were dissolved in 600 µL of D2O/ TFE-d3 mixture (4:1) to initialize the H-D exchange. The pH of the solution was confirmed. Spectra were recorded on a preshimmed Bruker AVANCE 500 MHz spectrometer. The recorded temperature was 33 °C. The intensity changes for each amide proton were determined by monitoring either the NH peaks on 1D spectra or the cross-peaks between NH and RH on 2D TOCSY spectra when overlapping was severe. The peak intensity data was fit into one phase exponential equation to get the exchange rate constants using GraphPad Prism 6.0 program. The rate constants were input into Englander lab’s spreadsheet (https://hx2.med.upenn.edu/download.html) to calculate protection factor and stabilization energy.

[4] = CD in PBS buffer (pH 7.4, 10 mM), 25.0 °C, 1 mm cell

Compound	helicity [1]	% helicity [2, 4]	also measured
C[C@H](NC(=O)[C@H](CCCCN)NC(=O)[C@H](C)NC(=O)[C@H](C)NC(=O)[C@H](C)NC(=O)[C@@H]1CSCc2cc3cc(c2)CSC[C@H](NC(=O)[C@@H](N)Cc2c[nH]c4ccccc24)C(=O)N[C@@H](CC(=O)O)C(=O)N[C@@H](C)C(=O)N[C@@H](C)C(=O)N[C@@H](CSC3)C(=O)N1)C(N)=O	59%		
C[C@H](NC(=O)[C@H](CCCCN)NC(=O)[C@H](C)NC(=O)[C@H](C)NC(=O)[C@H](C)NC(=O)[C@@H]1CSCc2cccc(c2)CSC[C@H](NC(=O)[C@@H](N)Cc2c[nH]c3ccccc23)C(=O)N[C@@H](CC(=O)O)C(=O)N[C@@H](C)C(=O)N[C@@H](C)C(=O)N[C@@H](C)C(=O)N1)C(N)=O (H-WCDAAACAAAKA-NH2; linker 2-7 via mXylylene)	34%		
C[C@H](NC(=O)[C@H](CCCCN)NC(=O)[C@H](C)NC(=O)[C@H](C)NC(=O)[C@H](C)NC(=O)[C@H](C)NC(=O)[C@@H]1CSCc2cccc(c2)CSC[C@H](NC(=O)[C@@H](N)Cc2c[nH]c3ccccc23)C(=O)N[C@@H](CC(=O)O)C(=O)N[C@@H](C)C(=O)N[C@@H](C)C(=O)N1)C(N)=O (H-WCDAACAAAAKA-NH2; linker 2-6 via mXylylene)	32%		
CSC[C@H](NC(=O)[C@H](C)NC(=O)[C@H](CCC(N)=O)NC(=O)[C@H](CC(=O)O)NC(=O)[C@@H](N)CSC)C(=O)N[C@@H](CSC)C(=O)N[C@@H](CC(C)C)C(=O)N[C@@H](CC(C)C)C(=O)N[C@@H](CCCNC(=N)N)C(=O)N[C@@H](C)C(=O)N[C@@H](CC(C)C)C(=O)N[C@@H](CC(=O)O)C(=O)N[C@@H](CCC(N)=O)C(=O)N[C@@H](Cc1ccc(O)cc1)C(N)=O [2m] (H-C(Me)DQAC(Me)C(Me)LLRALDQY-NH2; N-terminus and C-terminus assumed)	10%	10%	ellipticity ratio 222/208 nm ([2]; CD in 10% TFE/PBS, 25 °C): 0.44; % helicity ([2]; CD in 10% TFE/PBS, 25 °C): 24%; ellipticity ratio 222/208 nm ([2]; CD in PBS, 25 °C): 0.23
C[C@H](NC(=O)[C@H](CCCCN)NC(=O)[C@H](C)NC(=O)[C@H](C)NC(=O)[C@H](C)NC(=O)[C@@H]1CSCc2cc3cc(c2)CSC[C@H](NC(=O)[C@@H](N)Cc2c[nH]c4ccccc24)C(=O)N[C@@H](CC(=O)O)C(=O)N[C@@H](C)C(=O)N[C@@H](C)C(=O)N[C@@H](CSC3)C(=O)N1)C(N)=O [Bicyclo-short]			H/D exchange experiment, per-residue value (Fig 5i) ([3]; resi ID 3): 1.33; H/D exchange experiment, per-residue value (Fig 5i) ([3]; resi ID 4): 1.81; H/D exchange experiment, per-residue value (Fig 5i) ([3]; resi ID 5): 2.88; H/D exchange experiment, per-residue value (Fig 5i) ([3]; resi ID 6): 3.7; H/D exchange experiment, per-residue value (Fig 5i) ([3]; resi ID 7): 2.57; H/D exchange experiment, per-residue value (Fig 5i) ([3]; resi ID 8): 2.46; H/D exchange experiment, per-residue value (Fig 5i) ([3]; resi ID 9): 2.32; H/D exchange experiment, per-residue value (Fig 5i) ([3]; resi ID 10): 2.24
C[C@H](NC(=O)[C@H](CCCCN)NC(=O)[C@H](C)NC(=O)[C@H](C)NC(=O)[C@H](C)NC(=O)[C@@H]1CSCc2cc3cc(c2)CSC[C@H](NC(=O)[C@@H](N)Cc2c[nH]c4ccccc24)C(=O)N[C@@H](CC(=O)O)C(=O)N[C@@H](C)C(=O)N[C@@H](C)C(=O)N[C@@H](CSC3)C(=O)N1)C(N)=O [bicyclo 12-mer]		59%	ellipticity ratio 222/208 nm ([2]; CD in 10% TFE/PBS, 25 °C): 1.21; % helicity ([2]; CD in 10% TFE/PBS, 25 °C): 72%; ellipticity ratio 222/208 nm ([2]; CD in PBS, 25 °C): 0.76; protection factors (H/D exchange) around the capping region ([3]; D2O/TFE-d3 (4:1), 33 °C, NMR 500 MHz): significantly higher than for the linear LDLL 12-mer
Ac-AAAAKAAAAKAAAAKAAAAKAW-NH2 [AAKA 22-mer]	64%	64%	
Ac-AAAAKAAAAKAAAAKAW-NH2 [AAKA]	48%	48%	
Ac-AAAAKAAAAKAW-NH2 [AAKA 12-mer]	17%	17%	ellipticity ratio 222/208 nm ([2]; CD in 10% TFE/PBS, 25 °C): 0.47; % helicity ([2]; CD in 10% TFE/PBS, 25 °C): 35%; ellipticity ratio 222/208 nm ([2]; CD in PBS, 25 °C): 0.26
Ac-ADAAAAAAAKAAAAKAW-NH2 [ADAA]	55%	55%	
Ac-ADAALLAAAKAAAAKAW-NH2 [ADLL]	45%	45%	
Ac-FDAALLAAAKAAAAKAW-NH2 [FDLL]	53%	53%	
Ac-IDAALLAAAKAAAAKAW-NH2 [IDLL]	69%	69%	
Ac-LAAALLAAAKAAAAKAW-NH2 [LALL]	45%	45%	
Ac-LDAAALAAAKAAAAKAW-NH2 [LDAL]	69%	69%	
Ac-LDAAELAAAKAAAAKAW-NH2 [LDEL]	52%	52%	
Ac-LDAAFLAAAKAAAAKAW-NH2 [LDFL]	69%	69%	

Compound	helicity [1]	% helicity [2, 4]	also measured
Ac-LDAALAAAAKAAAAKAW-NH2 [LDLA]	39%	39%	
Ac-LDAALFAAAKAAAAKAW-NH2 [LDLF]	83%	83%	
Ac-LDAALIAAAKAAAAKAW-NH2 [LDLI]	52%	52%	
Ac-LDAALLAAAKAAAAKAAAAKAW-NH2 [LDLL 22-mer]	101%	101%	
Ac-LDAALLAAAKAAAAKAW-NH2 [LDLL]	93%	93%	
Ac-LDAALLAAAKAW-NH2	28%		
Ac-LDAALLAAAKAW-NH2 [LDLL 12-mer]		28%	ellipticity ratio 222/208 nm ([2]; CD in 10% TFE/PBS, 25 °C): 0.57; % helicity ([2]; CD in 10% TFE/PBS, 25 °C): 43%; ellipticity ratio 222/208 nm ([2]; CD in PBS, 25 °C): 0.39
Ac-LDAALLAAAKAW-NH2 [LDLL-short]			H/D exchange experiment, per-residue value (Fig 5i) ([3]; resi ID 1): 0.3; H/D exchange experiment, per-residue value (Fig 5i) ([3]; resi ID 3): 1.3; H/D exchange experiment, per-residue value (Fig 5i) ([3]; resi ID 4): 1.66; H/D exchange experiment, per-residue value (Fig 5i) ([3]; resi ID 5): 1.96; H/D exchange experiment, per-residue value (Fig 5i) ([3]; resi ID 6): 1.83; H/D exchange experiment, per-residue value (Fig 5i) ([3]; resi ID 7): 1.96; H/D exchange experiment, per-residue value (Fig 5i) ([3]; resi ID 9): 2.2; H/D exchange experiment, per-residue value (Fig 5i) ([3]; resi ID 10): 1.69; H/D exchange experiment, per-residue value (Fig 5i) ([3]; resi ID 11): 1.68
Ac-LDAALVAAAKAAAAKAW-NH2 [LDLV]	70%	70%	
Ac-LDAAQLAAAKAAAAKAW-NH2 [LDQL]	37%	37%	
Ac-LDAASLAAAKAAAAKAW-NH2 [LDSL]	67%	67%	
Ac-LDAATLAAAKAAAAKAW-NH2 [LDTL]	63%	63%	
Ac-QAEELLRALDQY-NH2 [2l]	13%	13%	ellipticity ratio 222/208 nm ([2]; CD in 10% TFE/PBS, 25 °C): 0.53; % helicity ([2]; CD in 10% TFE/PBS, 25 °C): 23%; ellipticity ratio 222/208 nm ([2]; CD in PBS, 25 °C): 0.27
Ac-QVARQLAEIY-NH2 [1l]	16%	16%	ellipticity ratio 222/208 nm ([2]; CD in 10% TFE/PBS, 25 °C): 0.64; % helicity ([2]; CD in 10% TFE/PBS, 25 °C): 20%; ellipticity ratio 222/208 nm ([2]; CD in PBS, 25 °C): 0.48
Ac-VDAALLAAAKAAAAKAW-NH2 [VDLL]	48%	48%	
WCAAACCAAAKA (also: bicyclic or more (positions not given here)) [bicyclo-D/A 12-mer, bicyclo 12-mer with Asp Ncap replaced with Ala]			reduction of helicity on substitution of Asp Ncap by Ala ([2]; CD in PBS, relative to bicyclo 12-mer): 49%
